In brackets after ≈: the same amount, converted by molar mass. Ends that are not written are not given here.
Assays:
in vitro [1] = settings: human, WM-266 cells
in vitro [2] = settings: human, HEK293 cells

CCCCCCCCCCCCCC(=O)O[C@@H]1[C@@H](C)[C@@]2(O)[C@@H](C=C(CO)C[C@]3(O)C(=O)C(C)=C[C@@H]23)[C@@H]2C(C)(C)[C@]12OC(C)=O [PMA, Phorbol 12-myristate 13-acetate, reference compound]
CC50 (HEK293 cell line): 275 µg/mL (≈ 446 µM) | CC50 (WM-266 cell line): 310 µg/mL (≈ 503 µM) | CC50 (BEAS-2B cell line): 297 µg/mL (≈ 481 µM) | CC50 (HUVEC cell line): 272 µg/mL (≈ 441 µM) | CC50 (HMEC-1 cell line): 291 µg/mL (≈ 472 µM)

CVNDTFAGSTFISDEVD [Peptide-A]
LC100 (HEK293 cell line): 450 | LC100 (WM-266 cell line): 445 µg/µL | LC100 (BEAS-2B cell line): 447 | LC100 (HUVEC cell line): 445 | LC100 (HMEC-1 cell line): 452

CVNDTFAGSTFISDEVDGVDEVAKKKSK [Peptide-AB]
LC100 (HEK293 cell line): 7 | CC50 (in vitro [1]): 36 µg/mL | LC100 (WM-266 cell line): 444 µg/µL | LC100 (BEAS-2B cell line): 444 | LC100 (HUVEC cell line): 456 | CC50 (in vitro [2]): 6 µg/mL | LC100 (HMEC-1 cell line): 450

GVDEVAKKKSK [Peptide-B]
LC100 (WM-266 cell line): 445 µg/µL

Phosphate-buffered saline [PBS]
LC100 (HEK293 cell line): 539 | LC100 (WM-266 cell line): 587 µg/µL | LC100 (BEAS-2B cell line): 616 | LC100 (HUVEC cell line): 612 | LC100 (HMEC-1 cell line): 580

Source: patent US11246922B1, “Vaccine RNA-peptide against SARS-CoV-2 with endogenous exosomes as carrier” (Elidan America, LLC., priority 2021, dated 2022)
